# Experimental data published in patent publication US4963581A, “Naphthopyran derivatives and use thereof” (Takeda Chemical Industries, Ltd., priority 1988, dated 1990).
# Columns and labels:
# [1] = biological target: T1, Human placental aromatase (Homo sapiens, UniProt P11511); assay: In vitro human placental aromatase inhibiting activity; format: biochemical; details: substrate androstenedione 4 μM, 37° C., 1 hour
# T1 construct: the pellet thus obtained was used as a microsome fraction; from tissue; host or cells: human placenta, microsome fraction
# T1 sequence (P11511 1-503): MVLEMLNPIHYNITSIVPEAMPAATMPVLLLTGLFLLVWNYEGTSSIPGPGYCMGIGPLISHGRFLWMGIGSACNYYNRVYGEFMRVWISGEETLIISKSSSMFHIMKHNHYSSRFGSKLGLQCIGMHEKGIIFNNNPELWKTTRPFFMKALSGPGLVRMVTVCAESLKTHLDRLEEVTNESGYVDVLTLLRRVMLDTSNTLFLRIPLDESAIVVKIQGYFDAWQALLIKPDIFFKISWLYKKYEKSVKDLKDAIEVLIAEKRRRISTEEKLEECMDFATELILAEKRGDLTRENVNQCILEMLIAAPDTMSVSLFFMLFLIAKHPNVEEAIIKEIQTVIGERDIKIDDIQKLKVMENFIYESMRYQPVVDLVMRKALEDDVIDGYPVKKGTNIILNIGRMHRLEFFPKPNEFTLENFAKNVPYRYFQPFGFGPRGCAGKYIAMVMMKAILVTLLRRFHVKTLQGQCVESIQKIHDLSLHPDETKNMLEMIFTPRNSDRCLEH
# Protocol: Preparation of human placental microsome:
# The method of F. A. Thompson et al. [Journal of Biological Chemistry, 249, 5364 (1974)]was partly modified. Thus, a placenta was washed with cooled 0.15 M KCl and, after removal of adhering membranes and great blood vessels, minced to sufficiently small pieces by means of scissors. To the minced tissue was added cold 0.02 M phosphate buffer (pH 7.4) containing 0.25 M sucrose in an amount of 1 ml per 1 g of tissue, the mixture was homogenized with a Polytron homogenizer (30 seconds, three times, in ice) and then centrifuged at 800×g for 10 minutes, the supernatant was subjected to centrifugation at 20,000×g for 30 minutes, followed by further centrifugation at 148,000×g for 45 minutes, and the pellet thus obtained was used as a microsome fraction. The microsome obtained was suspended in the same phosphate buffer as mentioned above in a concentration corresponding to 10 g of wet placenta per ml. The suspension was stored at -80° C. and, just prior to use, diluted 5 to 6 times.
# Aromatase activity measurement and inhibitory activity:
# The method of F. A. Thompson et al. (vide supra) was partly modified as follows:
# A reaction solution ([…]) containing 4 μM 4-androstene-3,17-dione, 140,000 dpm, 1,2[^3 H]-androstenedione, 550 μM NADPH, 20 μl of the above microsome and 5 μl of buffer or 5 μl of an inhibitor-containing solution was incubated at 37° C. for 1 hour. In this measurement system, aromatization of androstenedione gives [^3 H]--H2 O. Therefore, this reaction mixture was extracted with 0.5 ml of chloroform for separation, the aqueous layer obtained was treated with 0.25 ml of 5% active carbon for removal of free steriods and then subjected to low speed centrifugation. A scintillator (3 ml) was added to 0.2 ml of the supernatant, and the radioactivity was measured by means of a liquid scintillation counter. The percent inhibition (%) was determined by comparing the result thus obtained with the result for a control sample as obtained without adding any inhibitor. The activity was expressed in terms of IC50 (μg/ml), namely the inhibitor concentration required for 50% inhibition of the enzyme activity at the substrate (androstenedione) concentration of 4 μM.
# estrogen synthesis = assay: Estrogen synthesis inhibition in rats (PMSG-stimulated); format: in vivo, young SD rats; details: 4 days, Mean ± SD
# Protocol: Groups of five young SD rats ([…], 19 days old) were used. Test groups were administered subcutaneously with the test compounds suspended in 0.2% gum arabic-containing physiological saline in a dose of 25 mg/kg or 50 mg/kg at 24-hour intervals for consecutive 4 days. Non-test groups (control groups […]) were administered with 0.2 ml of 0.2% gum arabic-containing physiological saline. On the third day after initiation of the test, a single dose of pregnant mare serum gonadotropin (PMSG) was administered subcutaneously in a dose of 10 U/rat to the test groups and to the control group 2, following the administration of the test compounds. […] The plasma samples thus obtained were subjected to plasma estradiol-17B level determination by radioimmunoassay. The uterus and ovaries were excised from each rat and, after removal of superfluous connective tissues, weighed. The results thus obtained are shown in Table 2.4-Hydroxyandrostenedione (4-OHA) was used as a reference compound for the pharmacological effect evaluation.
# *P < 0.05, **P < 0.02, ***P < 0.01, ****<0.001 against PMSG group
# [2] = Test I, 25 mg/kg/day s.c., PMSG control 568.6 ± 69.7
# [3] = Test I, 50 mg/kg/day s.c., PMSG control 568.6 ± 69.7
# [4] = Test II, 25 mg/kg/day s.c., PMSG control 240.0 ± 34.9
# [5] = Test II, 50 mg/kg/day s.c., PMSG control 240.0 ± 34.9
smiles,measurement,setting,value
"COC1=C(C2=C(OC)C(=O)c3cc4c(c(O)c3C2=O)C(=O)OC(C)C4)C(=O)c2c(cc3c(c2O)C(=O)OC(C)C3)C1=O (stereo not drawn) [Compound 1, xanthomegnin]",IC50,[1],8.18 µM
same,Body weight gain,"estrogen synthesis; Test I, 25 mg/kg/day s.c.",22.4 ± 3.1 g
same,"Tissue weight, Ovaries","estrogen synthesis; Test I, 25 mg/kg/day s.c.",23.7 ± 3.4 mg
same,"Tissue weight, Uterus","estrogen synthesis; Test I, 25 mg/kg/day s.c.",88.9 ± 9.0 mg
same,Plasma estradiol-17β level,estrogen synthesis; [2],204.7 ± 67.0 pg/mL
same,Body weight gain,"estrogen synthesis; Test I, 50 mg/kg/day s.c.",21.4 ± 2.7 g
same,"Tissue weight, Ovaries","estrogen synthesis; Test I, 50 mg/kg/day s.c.",25.5 ± 5.5 mg
same,"Tissue weight, Uterus","estrogen synthesis; Test I, 50 mg/kg/day s.c.",91.9 ± 14.4 mg
same,Plasma estradiol-17β level,estrogen synthesis; [3],250.9 ± 161.1 pg/mL
"COC1=C(C2=C(O)C(=O)c3cc4c(c(O)c3C2=O)C(=O)OC(C)C4)C(=O)c2c(cc3c(c2O)C(=O)OC(C)C3)C1=O (stereo not drawn) [Compound 2, monodemethylxanthomegnin]",IC50,[1],24.1 µM
same,"Tissue weight, Ovaries","estrogen synthesis; Test III, 25 mg/kg/day s.c.",29.4 ± 7.5 mg
same,"Tissue weight, Uterus","estrogen synthesis; Test III, 25 mg/kg/day s.c.",115.7 ± 14.0 mg
same,Plasma estradiol-17β level,"estrogen synthesis; Test III, 25 mg/kg/day s.c., PMSG control 327.9 ± 126.6",189.5 ± 123.4 pg/mL
same,"Tissue weight, Ovaries","estrogen synthesis; Test III, 50 mg/kg/day s.c.",29.0 ± 2.5 mg
same,"Tissue weight, Uterus","estrogen synthesis; Test III, 50 mg/kg/day s.c.",106.3 ± 14.0 mg
same,Plasma estradiol-17β level,"estrogen synthesis; Test III, 50 mg/kg/day s.c., PMSG control 327.9 ± 126.6",195.1 ± 79.3 pg/mL
"CC1Cc2cc3c(c(O)c2C(=O)O1)C(=O)C(C1=C(O)C(=O)c2cc4c(c(O)c2C1=O)C(=O)OC(C)C4)=C(O)C3=O (stereo not drawn) [Compound 3, luteosporin]",IC50,[1],134 µM
same,"Tissue weight, Ovaries","estrogen synthesis; Test II, 25 mg/kg/day s.c.",21.3 ± 4.4 mg
same,"Tissue weight, Uterus","estrogen synthesis; Test II, 25 mg/kg/day s.c.",93.6 ± 22.4 mg
same,Plasma estradiol-17β level,estrogen synthesis; [4],124.1 ± 53.3 pg/mL
same,"Tissue weight, Ovaries","estrogen synthesis; Test II, 50 mg/kg/day s.c.",22.6 ± 5.4 mg
same,"Tissue weight, Uterus","estrogen synthesis; Test II, 50 mg/kg/day s.c.",115.4 ± 30.4 mg
same,Plasma estradiol-17β level,estrogen synthesis; [5],71.1 ± 23.4 pg/mL
"CC1Cc2cc3c(c(O)c2C(=O)O1)C(=O)C(C1=C(O)C(=O)c2cc4c(c(O)c2C1=O)C(=O)OC(C)C4)=C(N)C3=O (stereo not drawn) [Compound 4, plastatin]",IC50,[1],30.2 µM
same,"Tissue weight, Ovaries","estrogen synthesis; Test II, 25 mg/kg/day s.c.",20.8 ± 3.9 mg
same,"Tissue weight, Uterus","estrogen synthesis; Test II, 25 mg/kg/day s.c.",97.4 ± 17.8 mg
same,Plasma estradiol-17β level,estrogen synthesis; [4],156.0 ± 47.8 pg/mL
same,"Tissue weight, Ovaries","estrogen synthesis; Test II, 50 mg/kg/day s.c.",26.8 ± 4.8 mg
same,"Tissue weight, Uterus","estrogen synthesis; Test II, 50 mg/kg/day s.c.",86.6 ± 9.6 mg
same,Plasma estradiol-17β level,estrogen synthesis; [5],190.3 ± 19.9 pg/mL
"COC1=C(c2c(OC)cc3cc4c(c(O)c3c2O)C(=O)OC(C)C4)C(=O)c2c(cc3c(c2O)C(=O)OC(C)C3)C1=O (stereo not drawn) [Compound 5, viomellein]",IC50,[1],130 µM
same,Body weight gain,"estrogen synthesis; Test II, 25 mg/kg/day s.c.",22.8 ± 1.8 g
same,"Tissue weight, Ovaries","estrogen synthesis; Test II, 25 mg/kg/day s.c.",25.3 ± 4.9 mg
same,"Tissue weight, Uterus","estrogen synthesis; Test II, 25 mg/kg/day s.c.",104.6 ± 16.6 mg
same,Plasma estradiol-17β level,estrogen synthesis; [4],60.5 ± 51.1 pg/mL
same,Body weight gain,"estrogen synthesis; Test II, 50 mg/kg/day s.c.",22.0 ± 1.2 g
same,"Tissue weight, Ovaries","estrogen synthesis; Test II, 50 mg/kg/day s.c.",21.0 ± 2.5 mg
same,"Tissue weight, Uterus","estrogen synthesis; Test II, 50 mg/kg/day s.c.",97.7 ± 16.0 mg
same,Plasma estradiol-17β level,estrogen synthesis; [5],63.8 ± 24.3 pg/mL
CC1Cc2cc3c(c(O)c2C(=O)O1)C(=O)C(C1=C(N)C(=O)c2cc4c(c(O)c2C1=O)C(=O)OC(C)C4)=C(N)C3=O (stereo not drawn) [Compound 6],IC50,[1],7.16 µM
same,"Tissue weight, Ovaries","estrogen synthesis; Test I, 25 mg/kg/day s.c.",32.2 ± 7.0 mg
same,"Tissue weight, Uterus","estrogen synthesis; Test I, 25 mg/kg/day s.c.",102.2 ± 15.5 mg
same,Plasma estradiol-17β level,estrogen synthesis; [2],353.2 ± 48.4 pg/mL
same,"Tissue weight, Ovaries","estrogen synthesis; Test I, 50 mg/kg/day s.c.",32.0 ± 2.9 mg
same,"Tissue weight, Uterus","estrogen synthesis; Test I, 50 mg/kg/day s.c.",103.1 ± 11.6 mg
same,Plasma estradiol-17β level,estrogen synthesis; [3],326.0 ± 115.1 pg/mL
COc1cc2cc3c(c(O)c2c(O)c1C1=C(N)C(=O)c2cc4c(c(O)c2C1=O)C(=O)OC(C)C4)C(=O)OC(C)C3 (stereo not drawn) [Compound 7],IC50,[1],50.4 µM
same,"Tissue weight, Ovaries","estrogen synthesis; Test I, 25 mg/kg/day s.c.",31.2 ± 8.5 mg
same,"Tissue weight, Uterus","estrogen synthesis; Test I, 25 mg/kg/day s.c.",94.1 ± 5.5 mg
same,Plasma estradiol-17β level,estrogen synthesis; [2],323.4 ± 161.2 pg/mL
same,"Tissue weight, Ovaries","estrogen synthesis; Test I, 50 mg/kg/day s.c.",27.7 ± 2.7 mg
same,"Tissue weight, Uterus","estrogen synthesis; Test I, 50 mg/kg/day s.c.",110.0 ± 14.9 mg
same,Plasma estradiol-17β level,estrogen synthesis; [3],206.3 ± 54.8 pg/mL
CCOC1=C(C2=C(OC)C(=O)c3cc4c(c(O)c3C2=O)C(=O)OC(C)C4)C(=O)c2c(cc3c(c2O)C(=O)OC(C)C3)C1=O (stereo not drawn) [Compound 8],IC50,[1],28.7 µM
CCOC1=C(C2=C(OCC)C(=O)c3cc4c(c(O)c3C2=O)C(=O)OC(C)C4)C(=O)c2c(cc3c(c2O)C(=O)OC(C)C3)C1=O (stereo not drawn) [Compound 9],IC50,[1],40.7 µM
CCOC1=C(C2=C(O)C(=O)c3cc4c(c(O)c3C2=O)C(=O)OC(C)C4)C(=O)c2c(cc3c(c2O)C(=O)OC(C)C3)C1=O (stereo not drawn) [Compound 10],IC50,[1],51.2 µM
CNC1=C(C2=C(NC)C(=O)c3cc4c(c(O)c3C2=O)C(=O)OC(C)C4)C(=O)c2c(cc3c(c2O)C(=O)OC(C)C3)C1=O (stereo not drawn) [Compound 11],IC50,[1],437 µM
CNC1=C(C2=C(NC)C(=O)c3cc4c(c(O)c3C2=O)C(=O)OC(C)C4)C(=O)c2c(cc3c(c2O)C(=O)OC(C)C3)C1=O (stereo not drawn) [Compound 12],IC50,[1],10.5 µM
COC1=C(C2=C(OC)C(=O)c3cc4c(c(OC)c3C2=O)C(=O)OC(C)C4)C(=O)c2c(cc3c(c2OC)C(=O)OC(C)C3)C1=O (stereo not drawn) [Compound 13],IC50,[1],16.9 µM
COC1=CC(=O)c2c(cc3c(c2O)C(=O)OC(C)C3)C1=O (stereo not drawn) [Compound 14],IC50,[1],2.78 µM
